Experimental data: patent US10711004B2 (Genentech, Inc., priority 2018, dated 2020)
Like-named read-outs stand apart in the source and are kept apart here.

Biological target: human TRPA1 channel (Homo sapiens (Human), UniProt O75762)
Assay: hTRPA1 CHO Ca2+ FLIPR Tetra assay, block of cinnamaldehyde induced calcium influx
Type: cell-based
Details: CHO cells expressing TRPA1, Hill coefficient fixed to 1.5
Summary of the method: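 IC50 values come from fixed-Hill fits of inhibition of cinnamaldehyde-induced (about EC50 level) calcium influx measured by FLIPR Tetra. Before agonist, TRPA1-expressing CHO cells loaded with calcium indicator were exposed to compound for 10 or 90 min at room temperature in HEPES-buffered HBSS, pH 7.4, with 0.02% BSA.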

[1] = read-out: hTRPA1 IC50 (10 min), compounds incubated 10 minutes at room temperature before cinnamaldehyde agonist
[2] = read-out: hTRPA1 IC50 (90 min), compounds incubated 90 minutes at room temperature before cinnamaldehyde agonist

Sequence of human TRPA1 channel (O75762 whole entry): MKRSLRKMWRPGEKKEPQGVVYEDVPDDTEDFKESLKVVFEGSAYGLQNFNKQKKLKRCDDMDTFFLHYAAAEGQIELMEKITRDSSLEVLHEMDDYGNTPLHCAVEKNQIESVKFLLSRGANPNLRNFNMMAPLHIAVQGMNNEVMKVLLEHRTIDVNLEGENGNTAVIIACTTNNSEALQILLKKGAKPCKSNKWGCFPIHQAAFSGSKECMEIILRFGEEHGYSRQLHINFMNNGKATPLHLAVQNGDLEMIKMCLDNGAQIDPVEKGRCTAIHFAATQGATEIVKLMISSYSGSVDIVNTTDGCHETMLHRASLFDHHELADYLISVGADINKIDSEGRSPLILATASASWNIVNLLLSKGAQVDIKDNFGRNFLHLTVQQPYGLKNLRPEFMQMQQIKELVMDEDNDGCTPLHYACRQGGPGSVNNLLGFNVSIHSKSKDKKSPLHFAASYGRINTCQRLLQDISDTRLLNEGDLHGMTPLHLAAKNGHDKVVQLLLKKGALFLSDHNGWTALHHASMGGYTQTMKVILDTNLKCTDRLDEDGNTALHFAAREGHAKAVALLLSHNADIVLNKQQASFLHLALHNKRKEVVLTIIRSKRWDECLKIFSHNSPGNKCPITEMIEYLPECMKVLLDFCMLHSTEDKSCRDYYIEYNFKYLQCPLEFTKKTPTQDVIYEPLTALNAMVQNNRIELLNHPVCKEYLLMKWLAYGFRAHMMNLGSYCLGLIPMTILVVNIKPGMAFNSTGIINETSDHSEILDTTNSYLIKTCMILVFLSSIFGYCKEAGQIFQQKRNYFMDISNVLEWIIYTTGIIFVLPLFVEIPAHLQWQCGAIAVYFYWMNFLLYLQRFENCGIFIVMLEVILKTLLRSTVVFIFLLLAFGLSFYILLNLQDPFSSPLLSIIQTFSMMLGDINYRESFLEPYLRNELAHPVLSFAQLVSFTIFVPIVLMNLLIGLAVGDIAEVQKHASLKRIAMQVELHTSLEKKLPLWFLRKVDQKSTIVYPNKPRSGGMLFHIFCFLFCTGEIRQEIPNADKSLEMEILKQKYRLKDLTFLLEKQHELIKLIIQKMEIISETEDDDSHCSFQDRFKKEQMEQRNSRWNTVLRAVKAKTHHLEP

Row | Compound | IC50 [1] | IC50 [2]
1 | Cn1cnc2ncn(Cc3nc([C@H]4[C@@H]5Oc6c(Cl)cccc6[C@@H]54)no3)c(=O)c21 [Example Compound 186, 1-((3-((1S,1aR,6bS)-3-chloro-1a,6b-dihydro-1H-cyclopropa[b]benzofuran-1-yl)-1,2,4-oxadiazol-5-yl)methyl)-7-methyl-1,7-dihydro-6H-purin-6-one] | 49.9 nM | 46 nM
2 | Cn1cnc2ncn(Cc3nc([C@@H]4[C@H]5Oc6c(Cl)cccc6[C@H]54)no3)c(=O)c21 [Example Compound 187, 1-((3-((1R,1 aS,6bR)-3-chloro-1a,6b-dihydro-1H-cyclopropa[b]benzofuran-1-yl)-1,2,4-oxadiazol-5-yl)methyl)-7-methyl-1,7-dihydro-6H-purin-6-one] | 763 nM | –
3 | Cn1cnc2ncn(Cc3nc([C@H]4C[C@H](c5cccc(C#N)c5)C4)no3)c(=O)c21 [Example Compound 189, 3-((1r,3r)-3-(5-((7-methyl-6-oxo-6,7-dihydro-1H-purin-1-yl)methyl)-1,2,4-oxadiazol-3-yl)cyclobutyl)benzonitrile] | 68.2 nM | –
4 | Cn1cnc2ncn(Cc3nc([C@H]4[C@@H]5CN(c6cccc(-c7ncco7)c6)C[C@@H]54)no3)c(=O)c21 [Example Compound 190, 7-methyl-1-((3-((1R,5S,6r)-3-(3-(oxazol-2-yl)phenyl)-3-azabicyclo[3.1.0]hexan-6-yl)-1,2,4-oxadiazol-5-yl)methyl)-1,7-dihydro-6H-purin-6-one] | 78.3 nM | 72 nM
5 | Cn1cnc2ncn(Cc3nc([C@H]4C[C@H](c5cccc(F)c5)C4)no3)c(=O)c21 [Example Compound 191, 1-((3-((1r,3r)-3-(3-fluorophenyl)cyclobutyl)-1,2,4-oxadiazol-5-yl)methyl)-7-methyl-1,7-dihydro-6H-purin-6-one] | 83 nM | –
6 | Cn1cnc2ncn(Cc3nc([C@H]4[C@@H]5CN(c6ccc(C#N)cc6)C[C@@H]54)no3)c(=O)c21 [Example Compound 192, 4-((1R,5S,6r)-6-(5-((7-methyl-6-oxo-6,7-dihydro-1H-purin-1-yl)methyl)-1,2,4-oxadiazol-3-yl)-3-azabicyclo[3.1.0]hexan-3-yl)benzonitrile] | 27.4 nM | 13 nM
7 | Cn1cnc2ncn(Cc3nc([C@H]4[C@@H]5CN(c6cc(Cl)cc(C#N)c6)C[C@@H]54)no3)c(=O)c21 [Example Compound 193, 3-chloro-5-((1R,5S,6r)-6-(5-((7-methyl-6-oxo-6,7-dihydro-1H-purin-1-yl)methyl)-1,2,4-oxadiazol-3-yl)-3-azabicyclo[3.1.0]hexan-3-yl)benzonitrile] | 37.1 nM | 32 nM
8 | O=c1c2cccnc2ncn1Cc1nc([C@H]2[C@@H]3CN(c4ccccc4)C[C@@H]32)no1 [Example Compound 194, 3-((3-((1R,5S,6r)-3-phenyl-3-azabicyclo[3.1.0]hexan-6-yl)-1,2,4-oxadiazol-5-yl)methyl)pyrido[2,3-d]pyrimidin-4(3H)-one] | 20.1 nM | 15 nM
9 | O=c1c2ccncc2ncn1Cc1nc([C@H]2[C@@H]3CN(c4ccccc4)C[C@@H]32)no1 [Example Compound 195, 3-((3-((1R,5S,6r)-3-phenyl-3-azabicyclo[3.1.0]hexan-6-yl)-1,2,4-oxadiazol-5-yl)methyl)pyrido[3,4-d]pyrimidin-4(3H)-one] | 99.4 nM | 110 nM
10 | Cc1ccnc2ncn(Cc3nc([C@H]4C[C@](F)(c5ccc(F)cc5)C4)no3)c(=O)c12 [Example Compound 196, 3-((3-((1s,3s)-3-fluoro-3-(4-fluorophenyl)cyclobutyl)-1,2,4-oxadiazol-5-yl)methyl)-5-methylpyrido[2,3-d]pyrimidin-4(3H)-one] | 13 nM | 30 nM
11 | O=c1c2cccnc2ncn1Cc1nc([C@H]2C[C@](F)(c3cccc(F)c3)C2)no1 [Example Compound 197, 3-((3-((1s,3s)-3-fluoro-3-(3-fluorophenyl)cyclobutyl)-1,2,4-oxadiazol-5-yl)methyl)pyrido[2,3-d]pyrimidin-4(3H)-one] | 66.9 nM | –
